Assays:
α1-GABAA receptor = assay: Ligand-binding assay, radiolabeled flumazenil competition, cerebellum membranes; design: species or system rat; conditions: for Affinity for the α1-subunit of the GABAA receptor, % inhibition: rat cerebellum membranes, radiolabeled flumazenil 1 nM; for affinity for α1-subunit of GABAA receptor (in words): compared with zolpidem where stated
Experimental: (§1) a) Ligand-binding Assays. Determination of the Affinity of Test Compounds for α1- and α2-GABAA, Receptor
(§2) Male Sprague-Dawley rats weighing 200-250 g at the time of experiment were used. After decapitation of the animal, the cerebellum (tissue that mostly contains α1-GABAA receptor) and spinal cord (tissue that mostly contains α2-GABAA receptor) were removed. The membranes were prepared according to the method by J. Lameh et al. (Prog. Neuro-Psychopharmacol. Biol. Psychiatry, 24, 979-991, 2000) and H. Noguchi et al. (Eur J Pharm, 434, 21-28, 2002) with slight modifications. Once the tissues weighed, they were suspended in 50 mM Tris.HCl (pH 7.4), 1:40 (v/v), or sucrose 0.32 M in the case of spinal cord, homogenized and then centrifuged at 20,000 g for 10 min at 7° C. The resulting pellet was resuspended under the same conditions and centrifuged again. The pellet was finally resuspended on a minimum volume and kept at −80° C. overnight. On the next day, the process was repeated until the final pellet was resuspended at a ratio of 1:10 (v/v) in the case of cerebellum and at a ratio of 1:5 (v/v) in the case of spinal cord.
(§3) Affinity was determined by competitive tests using radiolabeled flumazenil as ligand. The tests were performed according to the methods described by S. Arbilla et al. (Eur. J. Pharmacol., 130, 257-263, 1986); and Y. Wu et al. (Eur. J. Pharmacol., 278, 125-132, 1995) using 96-well microtiter plates. The membranes containing the study receptors, flumazenil (radiolabeling at a final concentration of 1 nM) and ascending concentrations of test compounds (in a total volume of 230 μL in 50 mM [pH 7.4] Tris.HCl buffer) were incubated. Simultaneously, the membranes were only incubated with the radiolabeled flumazenil (total binding, 100%) and in the presence of an elevated concentration of unradiolabeled flumazenil (non-specific binding, % estimation of radiolabeled ligand). The reactions started on adding the radiolabeled ligand followed by incubation for 60 minutes at 4° C. At the end of the incubation period, 200 μL of reaction were transferred to a multiscreen plate (Millipore) and filtered using a vacuum manifold and then washed three times with cold test buffer. The multiscreen plates were equipped with a GF/B filter that retained the membranes containing the receptors and the radiolabeled ligand which had been bound to the receptors. After washing, the plates were left till dry. Once dried, scintillation liquid was added and left under stirring overnight. The next day the plates were counted using a Perkin-Elmer Microbeta scintillation counter.
(§4) For analysis of the results the percentage of specific binding for every concentration of test compound was calculated as follows:
(§5) % specific binding=(X−N/T−N)×100
(§6) where, X: amount of bound ligand for every concentration of compound. T: total binding, maximum amount bound to the radiolabeled ligand. N: non-specific binding, amount of radiolabeled ligand bound in a non-specific way irrespective of the receptor used.
(§7) Every concentrations of compound were tested in triplicate and their mean values were used to determine the experimental values of % specific binding versus the concentration of compound. Affinity data are expressed as % inhibition at 10^−5M and 10^−7M concentrations.

α2-GABAA receptor = assay: Ligand-binding assay, radiolabeled flumazenil competition, spinal cord membranes; design: species or system rat; conditions: for Affinity for the α2-subunit of the GABAA receptor, % inhibition: rat spinal cord membranes, radiolabeled flumazenil 1 nM
Experimental: as §1, §2, §3, §4, §5, §6, §7

[1] = test system: spontaneous motor activity of male CD1 mice; assay: In vivo predictive sedation-hypnosis test (traveled distance); conditions: Mus musculus, ip, 0.5 h, 98 μmol/kg, single intraperitoneal dose, 30 minutes after dosing (first 5 min discarded), versus control
Experimental: b) In Vivo Determination of Predictive Sedative-Hypnotic Action
The in vivo effects of these compounds were assessed by a predictive sedation-hypnosis test in mice (D. J. Sanger et al., Eur. J. Pharmacol., 313, 35-42, 1996; and G. Griebel et al., Psychopharmacology, 146, 205-213, 1999).
Groups of 5-8 male CD1 mice, weighing 22-26 g at the time of test, were used. The test compounds were administered in single equimolecular intraperitoneal doses, suspended in 0.25% agar with one drop of Tween in a volume of 10 mL/kg. Control animals received the vehicle alone. Using a Smart System (Panlab, S. L., Spain) the traveled distance in cm was recorded for each mouse at 5 min intervals during a period of 30 minutes after dosing. The inhibition percentage traveled distance of treated animals versus control animals (the first 5 min were discarded) was calculated.

SMILES | Affinity for the α1-subunit of the GABAA receptor, % inhibition (α1-GABAA receptor; 10^−5M) | Affinity for the α1-subunit of the GABAA receptor, % inhibition (α1-GABAA receptor; 10^−7M) | Affinity for the α2-subunit of the GABAA receptor, % inhibition (α2-GABAA receptor; 10^−5M) | Affinity for the α2-subunit of the GABAA receptor, % inhibition (α2-GABAA receptor; 10^−7M) | inhibition in vivo at 98 µmol/kg [1] | affinity for α1-subunit of GABAA receptor (in words) (α1-GABAA receptor) | α1-/α2-selectivity (in words) (α1-GABAA receptor; compared with zolpidem) | affinity for the α2-subunit of GABAA receptor (in words) (α2-GABAA receptor; compared with zolpidem where stated)
C=CCN(CC=C)C(=O)Cn1cc(-c2ccc(OC)cc2)c(=O)c2ccc(C)cc21 [Example 97, N,N-Diallyl-2-[3-(4-methoxy-phenyl)-7-methyl-4-oxo-4H-quinolin-1-yl]-acetamide] | 90.7% | 4.9% | 62.0% | 0.0% | 76.8% | – | – | –
Cc1ccc(-c2nc3ccc(C)cn3c2CC(=O)N(C)C)cc1 [zolpidem, reference compound] | 99.8% | 51.9% | 74.1% | 19.9% | 91.7% | – | – | –
CCCN(CCC)C(=O)Cn1cc(-c2ccccc2)c(=O)c2ccc(Br)cc21 [Example 44, 2-(7-Bromo-4-oxo-3-phenyl-4H-quinolin-1-yl)-N,N-dipropyl-acetamide] | 99.8% | 61.9% | – | – | 95.2% | higher affinity | – | –
Cc1cccc2c1c(=O)cc(-c1ccccc1)n2CC(=O)N1CCCC1 [Example 11, 5-Methyl-1-(2-oxo-2-pyrrolidin-1-yl-ethyl)-2-phenyl-1H-quinolin-4-one] | 99.9% | 52.6% | – | – | – | higher affinity | – | –
Cc1ccc2c(=O)c(-c3ccccc3)cn(CC(=O)N3CCCC3)c2c1 [Example 18, 7-Methyl-1-(2-oxo-2-pyrrolidin-1-yl-ethyl)-3-phenyl-1H-quinolin-4-one] | 86.2% | 7.5% | 66.3% | 0.0% | 84.5% | – | higher α1-/α2-selectivity than the most selective therapeutically used compound zolpidem | –
C=CCN(CC=C)C(=O)Cn1cc(-c2ccccc2)c(=O)c2ccc(Br)cc21 [Example 129, N,N-Diallyl-2-(7-bromo-4-oxo-3-phenyl-4H-quinolin-1-yl)-acetamide] | 99.7% | 85.2% | – | – | 93.5% | higher affinity | – | –
Cc1ccc2c(=O)c(-c3ccccc3)cn(CC(=O)c3ccccn3)c2c1 [Example 28, 7-Methyl-1-(2-oxo-2-pyridin-2-yl-ethyl)-3-phenyl-1H-quinolin-4-one] | 97.9% | 22.5% | 88.0% | 0.0% | 84.4% | – | – | –
CCCN(CCC)C(=O)Cn1cc(-c2ccccc2)c(=O)c2ccccc21 [Example 47, 2-(4-Oxo-3-phenyl-4H-quinolin-1-yl)-N,N-dipropyl-acetamide] | 88.1% | 2.3% | 68.9% | 0.0% | 74.7% | – | – | –
CCCN(CCC)C(=O)Cn1cc(-c2ccccc2)c(=O)c2ccc(C)cc21 [Example 14, 2-(7-Methyl-4-oxo-3-phenyl-4H-quinolin-1-yl)-N,N-dipropyl-acetamide] | 98.4% | 36.7% | 77.3% | 40.6% | 96.2% | higher affinity | – | –
C=CCN(CC=C)C(=O)Cn1cc(-c2ccccc2)c(=O)c2ccc(C)cc21 [Example 43, N,N-Diallyl-2-(7-methyl-4-oxo-3-phenyl-4H-quinolin-1-yl)-acetamide] | 99.0% | 49.9% | 88.2% | 12.5% | 91% | – | – | higher affinity than prior art compound zolpidem
Cc1ccc2c(=O)c(-c3ccccc3)cn(CC(=O)N3C(C)C=CC3C)c2c1 (centres unmarked) [Example 42, 1-[2-(2,5-Dimethyl-2,5-dihydro-pyrrol-1-yl)-2-oxo-ethyl]-7-methyl-3-phenyl-1H-quinolin-4-one] | 97.0% | 25.6% | 74.1% | 0.0% | 92.2% | – | – | –
CCCN(CC1CC1)C(=O)Cn1cc(-c2ccccc2)c(=O)c2ccc(C)cc21 [Example 39, N-Cyclopropylmethyl-2-(7-methyl-4-oxo-3-phenyl-4H-quinolin-1-yl)-N-propyl-acetamide] | 98.8% | 56.3% | 93.4% | 28.5% | 92.5% | higher affinity | – | –
CCCN(CCC)C(=O)Cn1cc(-c2ccc(OC)cc2)c(=O)c2ccc(C)cc21 [Example 36, 2-[3-(4-Methoxy-phenyl)-7-methyl-4-oxo-4H-quinolin-1-yl]-N,N-dipropyl-acetamide] | 95.9% | 20.3% | – | – | 92.1% | – | – | –
Cc1ccc2c(=O)c(-c3ccccc3)cn(CC(=O)c3oc(C)nc3C)c2c1 [Example 33, 1-[2-(2,4-Dimethyl-oxazol-5-yl)-2-oxo-ethyl]-7-methyl-3-phenyl-1H-quinolin-4-one] | 97.0% | 33.9% | – | – | 91.7% | – | – | –
COc1ccc(NC(=O)Cn2cc(-c3ccc(OC)cc3)c(=O)c3ccc(C)cc32)cc1 [Example 80, N-(4-Methoxy-phenyl)-2-[3-(4-methoxy-phenyl)-7-methyl-4-oxo-4H-quinolin-1-yl]acetamide] | 78.5% | 28.5% | 65.1% | 15.7% | 71.9% | – | – | –
Cc1cccc2c1c(=O)cc(-c1ccccc1)n2CC(=O)N1CCOCC1 [Example 1, 5-Methyl-1-(2-morpholin-4-yl-2-oxo-ethyl)-2-phenyl-1H-quinolin-4-one] | 99.5% | 57.9% | – | – | – | higher affinity | – | –
